{"source": "patent US20220105244A1", "about": "“METHODS AND COMPOSITIONS FOR PROTECTION OF BIOPROSTHETIC HEART VALVE TISSUE FROM GLYCATION AND ASSOCIATED PROTEIN INCORPORATION” (The Trustees of Columbia University in the City of New York, priority 2019, published 2022)", "key": {"[1]": {"test_system": "glutaraldehyde-fixed bovine pericardium", "experiment": "Maillard browning of anti-glycation pre-treated tissue discs after in vitro glycation", "details": "for tissue browning due to aggressive glycation: 6 weeks anti-glycation pretreatment at 37° C. (1,5 at pH 9.0), 1-week 50 mM glyoxal, methylglyoxal or glyoxal+5% human serum albumin", "protocol": "A general method flow chart is described below. First, standard 0.6% glutaraldehyde fixation protocol (+/−any additional technology, e.g., anti-calcification). Second, wash protocol in phosphate-buffered saline to remove residual unreacted glutaraldehyde or other compounds. Third, incubation in subject compounds dissolved in, for example, phosphate-buffered saline at 37° C. for 6 weeks. Fourth, wash protocol in phosphate-buffered saline to remove residual unreacted anti-glycation precursor. Fifth, storage (usually in 0.2% glutaraldehyde.\n(§1) Anti-glycation pretreatments have been performed for 1-, 2-, 4-, and 6-week-long durations for both 1,5-dihydro-2H-pyrrol-2-one as well as 4-(1-methyl-1H-imidazol-4-yl)butanal, and diversified 1-week glycation reactions have been applied to these samples. Namely, these conditions are 50 mM glyoxal, 50 mM methylglyoxal, and 50 mM glyoxal+5% human serum albumin. An antibody for N-carboxyethyl lysine, a major product of methylglyoxal glycation, was utilized for immunohistochemical staining.\n“Maillard browning” is a classic and straightforward visual indicator of glycation. Formation of glycation products causes brown hues to develop in glycated tissues and proteinaceous materials. As a preliminary endpoint for initial anti-glycation efficacy studies, the inventors sought to evaluate prevention of browning due to glycation in glutaraldehyde-fixed bovine pericardium, the most common bioprosthetic heart valve biomaterial (and also widely used in other bioprosthetic implants), by pretreatment with the designed anti-glycation compounds. Short term (3-day) and long-term (6-week) protective incubation durations at physiological temperature (37° C.) were chosen as a starting point. Anti-glycation was followed by extensive washing of tissue in phosphate-buffered saline (PBS) to remove any unreacted anti-glycation precursor and extreme glycation conditions (1-week incubation in 50 mM doses of either methylglyoxal or glyoxal, two of the most reactive physiologically-relevant glycation precursors, or 50 mM glyoxal+5% human serum albumin, which exacerbates browning). Treatments and evaluation of browning have been performed with 1,5-dihydro-2H-pyrrol-2-one (“1,5,” compound 3) and 4-(1H-Imidazol-4-yl)butanal (“4IB”)."}, "[2]": {"test_system": "glutaraldehyde-fixed bovine pericardium (Glut-BP)", "experiment": "Uptake of 14C-radiolabeled glyoxal by glut-BP", "details": "6-week pre-incubation at 37° C., 1× (7.2 μmol/mg glut-BP); 24 hours at 37° C. in 50 mM 14C-glyoxal", "protocol": "FIG. 9. Bar graph of the quantitation of uptake by glutaraldehyde-fixed bovine pericardium (Glut-BP) of radioactively-labeled glycation precursor after 24 hours of incubation at 37° C. in 50 mM ^14C-radiolabeled glyoxal. Glut-BP was either kept in phosphate-buffered saline solution (PBS) in storage at 4° C. or placed in pre-incubation at 37° C. in PBS, PBS+1×1,5-dihydro-2H-pyrrol-2-one at 7.2 μmol/mg glut-BP, or PBS+1×4-(1-methyl-1H-imidazol-4-yl)butanal at 7.2 μmol/mg glut-BP.\nThe above interpretations are supported by quantitation of uptake of glycation precursor by glut-BP using carbon-14-radiolabeled glyoxal, which indicates approximately 15% decreases in overall glycation versus by an extreme concentration (50 mM) of glyoxal in glut-BP pre-treated by 6-week incubation at 37° C. in PBS alone or 1×1,5 or 1×4IB, shown in FIG. 9."}, "[3]": {"test_system": "N-carboxyethyl lysine (CEL)", "experiment": "Immunohistochemistry with antibody for N-carboxyethyl lysine after methylglyoxal glycation", "design": "species or system bovine", "details": "anti-glycated vs untreated tissue", "protocol": "as §1"}, "[4]": {"test_system": "N-carboxymethyl lysine (CML)", "experiment": "Immunohistochemistry with anti-CML antibody after glyoxal glycation", "design": "species or system bovine", "protocol": "As a preliminary specific chemical analysis, immunohistochemistry was performed using a standard anti-CML (AbCAM #ab27684 @ 1:5000 dilution) antibody to probe for the best-studied glycation product, N-carboxymethyl lysine, after control or anti-glycated glutaraldehyde-fixed bovine pericardium tissue discs were glycated under aggressive conditions known to efficiently generate CML (one week incubation at 37° C. in 50 mM glyoxal). Brown staining indicates presence of CML."}}, "data": [{"smiles": "O=C1C=CCN1", "note": "[Compound 3, 1,5-dihydro-2H-pyrrol-2-one]", "values": [{"measurement": "protection against optical browning", "setting": "[1]; 50 mM glyoxal, 50 mM methylglyoxal, or 50 mM glyoxal+5% HSA for 7 days at 37° C.", "value": "dramatic protection"}, {"measurement": "tissue browning due to aggressive glycation", "setting": "[1]", "value": "dramatic diminishment of tissue browning"}, {"measurement": "incorporation of glycated (browned) albumin (tissue color, precursor alone vs precursor plus albumin)", "setting": "[1]; 6 weeks pretreatment, 50 mM glyoxal+5% human serum albumin", "value": "effectively blocks incorporation of glycated (browned) albumin"}, {"measurement": "decrease in overall glycation (uptake of 14C-glyoxal)", "setting": "[2]", "value": "approximately 15%"}, {"measurement": "CEL formation in response to methylglyoxal", "setting": "[3]", "value": "still formed similarly as in untreated tissue"}, {"measurement": "CML formation in response to glyoxal", "setting": "[4]; anti-glycated vs untreated tissue", "value": "still formed similarly as in untreated tissue"}, {"measurement": "CML formation", "setting": "[4]; pretreatment for 6 weeks, one week incubation at 37° C. in 50 mM glyoxal", "value": "not mitigated"}]}, {"smiles": "O=CCCCc1c[nH]cn1", "note": "[Compound 5, 4-(1H-Imidazol-4-yl)butanal]", "values": [{"measurement": "tissue browning due to aggressive glycation", "setting": "[1]", "value": "Protection from browning is less pronounced"}, {"measurement": "decrease in overall glycation (uptake of 14C-glyoxal)", "setting": "[2]", "value": "approximately 15%"}]}]}
